Read-outs that look alike come from different tables or passages of the source.
Experiments:
Type in all cases: in vivo
[1] = tested on: Echinochloa crus-galli (ECHCG); experiment: Glasshouse assay for herbicidal activity, pre-/post-emergence (percentage phytotoxicity); conditions: Echinochloa crus-galli, Rate 250 g/ha, 100%=total damage, 0%=no damage
In short: (§1)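 Test plants are sown in pots of standard soil, held one day for pre-emergence or about twelve days for post-emergence, then treated. They grow on under glasshouse control with twice-daily watering, and damage is rated by eye as a percentage at 15 (post) or 20 (pre) days after application.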

[2] = tested on: Alopecurus myosuroides (ALOMY); experiment: as above; conditions: Alopecurus myosuroides, Rate 250 g/ha, 100%=total damage, 0%=no damage
In short: as §1

Lolium perenne (LOLPE) = experiment: as above; conditions: Lolium perenne, Rate 250 g/ha, 100%=total damage, 0%=no damage
In short: as §1

Avena fatua (AVEFA) = experiment: as above; conditions: Avena fatua, Rate 250 g/ha, 100%=total damage, 0%=no damage
In short: as §1

wheat = experiment: Post-emergence herbicidal activity against cereal crops (wheat) +/- safener, crop selectivity; conditions: 100%=total damage to plant, 0%=no damage; for Post-emergence herbicidal activity against wheat (percentage phytotoxicity), +CQC: 250 g/ha, plus safener cloquintocet-mexyl (CQC) applied at 50 g/ha; for percent phytotoxicity (crop damage) to wheat at 250 g/ha: Triticum aestivum, 360 h, without safener, read-out: Post-emergence herbicidal activity against wheat (percentage phytotoxicity), Wheat - CQC
In short: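 Test plants raised in pots in a glasshouse (24/18 °C warm or 20/16 °C cool species day/night, 16 h light, 65% humidity) and treated post-emergence about 12 days after sowing. Visual percentage phytotoxicity scored 15 days after application (0% = no damage, 100% = total damage).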

[3] = post-emergence, 360 h, post-emergence, visual assessment 15 DAA, read-out: Post-emergence herbicidal activity (percentage phytotoxicity), ECHCG POST
[4] = pre-emergence, 480 h, pre-emergence, visual assessment 20 DAA, read-out: Pre-emergence herbicidal activity (percentage phytotoxicity), ECHCG PRE
[5] = 360 h, post-emergence, visual assessment 15 DAA, read-out: Post-emergence herbicidal activity (percentage phytotoxicity), ALOMY POST
[6] = 480 h, pre-emergence, visual assessment 20 DAA, read-out: Pre-emergence herbicidal activity (percentage phytotoxicity), ALOMY PRE
[7] = post-emergence, 360 h, post-emergence, visual assessment 15 DAA, read-out: Post-emergence herbicidal activity (percentage phytotoxicity), LOLPE POST
[8] = pre-emergence, 480 h, pre-emergence, visual assessment 20 DAA, read-out: Pre-emergence herbicidal activity (percentage phytotoxicity), LOLPE PRE
[9] = post-emergence, 360 h, post-emergence, visual assessment 15 DAA, read-out: Post-emergence herbicidal activity (percentage phytotoxicity), AVEFA POST
[10] = pre-emergence, 480 h, pre-emergence, visual assessment 20 DAA, read-out: Pre-emergence herbicidal activity (percentage phytotoxicity), AVEFA PRE

| Compound | pest or weed control at 250 g/ha [1, 3] [%] | pest or weed control at 250 g/ha [1, 4] [%] | pest or weed control at 250 g/ha [2, 5] [%] | pest or weed control at 250 g/ha [2, 6] [%] | pest or weed control at 250 g/ha (Lolium perenne (LOLPE); [7]) [%] | pest or weed control at 250 g/ha (Lolium perenne (LOLPE); [8]) [%] | pest or weed control at 250 g/ha (Avena fatua (AVEFA); [9]) [%] | pest or weed control at 250 g/ha (Avena fatua (AVEFA); [10]) [%] | Post-emergence herbicidal activity against wheat (percentage phytotoxicity), +CQC (wheat) [%] | percent phytotoxicity (crop damage) to wheat at 250 g/ha (wheat) [%] |
| --- | --- | --- | --- | --- | --- | --- | --- | --- | --- | --- |
| Cc1cc(C)c(C2C(=O)CC(CCNC(=O)NC(=O)c3ccccc3C(F)(F)F)C2=O)c(C)c1 (centres unmarked) [Compound A60] | 80 | 70 | 100 | 70 | 90 | 80 | 100 | 80 | 70 | 80 |
| Cc1cc(C)c(C2C(=O)CC(CCNC(=O)NC(=O)c3ccc(C(F)(F)F)c(F)c3)C2=O)c(C)c1 (centres unmarked) [Compound A61] | 70 | 30 | 40 | 20 | 70 | 40 | 0 | 30 | 40 | 70 |
| Cc1cc(C)c(C2C(=O)CC(CCNC(=O)NC(=O)c3cc(C(F)(F)F)ccc3Cl)C2=O)c(C)c1 (centres unmarked) [Compound A62] | 80 | 80 | 90 | 70 | 80 | 40 | 80 | 30 | 70 | 80 |
| Cc1cc(C)c(C2C(=O)CC(CCNC(=O)NC(=O)c3cc(F)ccc3C(F)(F)F)C2=O)c(C)c1 (centres unmarked) [Compound A63] | 80 | 70 | 100 | 90 | 90 | 80 | 90 | 40 | 80 | 80 |
| Cc1cc(C)c(C2C(=O)CC(CCNC(=O)NC(=O)c3c(F)cc(Cl)cc3F)C2=O)c(C)c1 (centres unmarked) [Compound A64] | 90 | 80 | 90 | 100 | 100 | 80 | 90 | 80 | 80 | 90 |
| Cc1cc(C)c(C2C(=O)CC(CCNC(=O)NC(=O)c3cc(F)c(Cl)cc3Cl)C2=O)c(C)c1 (centres unmarked) [Compound A65] | 80 | 70 | 100 | 80 | 100 | 80 | 90 | 70 | 40 | 80 |
| Cc1cc(C)c(C2C(=O)CC(CCNC(=O)NC(=O)c3cccc(C(F)(F)F)c3)C2=O)c(C)c1 (centres unmarked) [Compound A66] | 60 | 10 | 70 | 20 | 80 | 40 | 30 | 0 | 40 | 80 |
| Cc1cc(C)c(C2C(=O)CC(CCNC(=O)NC(=O)c3ccccc3C#N)C2=O)c(C)c1 (centres unmarked) [Compound A67] |  | 30 |  | 0 |  | 20 |  | 0 | 0 | 0 |
| Cc1cc(C)c(C2C(=O)CC(CCNC(=O)NC(=O)c3ccc(Cl)c(Cl)c3)C2=O)c(C)c1 (centres unmarked) [Compound A68] | 70 | 10 | 50 | 0 | 80 | 30 | 0 | 10 | 0 | 90 |
| Cc1cc(C)c(C2C(=O)CC(CCNC(=O)NC(=O)c3ccc(F)cc3C(F)(F)F)C2=O)c(C)c1 (centres unmarked) [Compound A69] | 70 | 70 | 100 | 80 | 100 | 80 | 90 | 80 | 80 | 90 |
| Cc1cc(C)c(C2C(=O)CC(CCNC(=O)NC(=O)c3ccc(C(F)(F)F)cc3F)C2=O)c(C)c1 (centres unmarked) [Compound A70] | 90 | 100 | 20 | 50 | 100 | 60 | 90 | 40 | 80 | 80 |
| Cc1cc(C)c(C2C(=O)CC(CCNC(=O)NC(=O)c3ccc(OC(F)(F)F)cc3)C2=O)c(C)c1 (centres unmarked) [Compound A71] | 80 | 0 | 20 | 30 | 80 | 40 | 50 | 20 | 20 | 80 |
| Cc1cc(C)c(C2C(=O)CC(CCNC(=O)NC(=O)c3ccc(C(F)(F)F)cc3)C2=O)c(C)c1 (centres unmarked) [Compound A72] | 80 | 0 | 30 | 20 | 80 | 10 | 90 | 20 | 70 | 80 |
| Cc1cc(C)c(C2C(=O)CC(CCNS(=O)(=O)c3ccc(F)cc3)C2=O)c(C)c1 (centres unmarked) [Compound A73] | 30 | 30 | 40 | 70 | 60 | 70 | 60 | 0 | 10 | 0 |
| Cc1cc(C)c(C2C(=O)CC(CCNS(=O)(=O)c3ccc(C(F)(F)F)cc3)C2=O)c(C)c1 (centres unmarked) [Compound A74] | 60 | 70 | 50 | 70 | 60 | 70 |  | 90 | 0 | 10 |
| Cc1cc(C)c(C2C(=O)CC(CCNS(=O)(=O)c3ccc(F)c(Cl)c3)C2=O)c(C)c1 (centres unmarked) [Compound A75] | 30 | 70 | 60 | 70 | 70 | 80 | 80 | 60 | 0 | 0 |
